Test [1] relates to RT-4. Briefly: Sniper activity at FGFR3-TACC3 in human RT4 cells assessed as decrease in FGFR3-TACC3 protein level at 3 uM after 6 hrs. In kind it is cell-based.
The subject of test [2] is RT-4. Put plainly: Antiproliferative activity against human RT-4 cells expressing FGFR3-TACC3 at 3 uM measured after 72 hrs by WST assay. In kind it is functional, cell-based.
Test [3] has as its system RT-4. Put plainly: Sniper activity at FGFR3-TACC3 in human RT4 cells assessed as decrease in FGFR3-TACC3 protein level at 3 uM after 6 hrs in presence of siRNA XIAP. In kind it is cell-based.
In test [4] the test system is RT-4. Briefly: Sniper activity at FGFR3-TACC3 in human RT4 cells assessed as decrease in FGFR3-TACC3 protein level at 30 uM after 6 hrs. In kind it is cell-based.

Active and inactive are the calls of the source. The rule behind the calls is not given here.

Regarding `CN[C@@H](C)C(=O)N[C@H](C(=O)N1C[C@@H](Oc2cccc(OCCOCCOCCOCCOCCNC(=O)c3ccc(-c4nc(CNc5nccc(NCC(C)C)n5)cs4)cc3)c2)CC1C(=O)N[C@@H]1CCCc2ccccc21)C1CCCCC1` (some centres not stated), in the test with RT-4 [1], the outcome was Active.
With `CN[C@@H](C)C(=O)N[C@H](C(=O)N1CCC[C@H]1c1nc(C(=O)c2cccc(OCCOCCOCCNC(=O)c3ccc(-c4nc(CNc5nccc(NCC(C)C)n5)cs4)cc3)c2)cs1)C1CCCCC1`, the result with RT-4 [2], with RT-4 [1] and in the test with RT-4 [3] was Active.
`CN[C@@H](C)C(=O)N[C@H](C(=O)N1CCC[C@H]1c1nc(C(=O)c2cccc(OCCOCCOCCOCCNC(=O)c3ccc(-c4nc(CNc5nccc(NCC(C)C)n5)cs4)cc3)c2)cs1)C1CCCCC1`: the outcome with RT-4 [1] was Active.
Consider `CC(C)CNc1ccnc(NCc2csc(-c3ccc(C(=O)NCCOCCOCCOCCNC(=O)[C@H](CC(C)C)NC(=O)[C@@H](O)[C@H](N)Cc4ccccc4)cc3)n2)n1`, for which, in the test on RT-4 [4], the outcome was Active.
Consider `CN[C@@H](C)C(=O)N[C@H](C(=O)N1C[C@@H](Oc2cccc(OCCOCCOCCOCCNC(=O)c3ccc(-c4nc(CNc5nccc(NCC(C)C)n5)cs4)cc3)c2)C[C@H]1C(=O)N[C@@H]1CCCc2ccccc21)C1CCCCC1`, for which the outcome in the test on RT-4 [1] was Active.

The record behind these values is ChEMBL document CHEMBL5143577, “Development of a degrader against oncogenic fusion protein FGFR3-TACC3” (Bioorg Med Chem Lett, 2022).
